According to patent US20090264433A1, “Compounds, Compositions and Methods Comprising Triazine Derivatives” (Institute for OneWorld Health, priority 2008, published 2009):
Counter-ions that a name gives are not always drawn.

These molecules were tested against T1, CFTR channel in human colonic T84 cells (Homo sapiens, UniProt P13569) (assay: T84 assay (FLIPR membrane potential dye, forskolin/IBMX-stimulated CFTR)). Details: average of at least 2 runs unless annotated n = 1.
T1 construct: results in the phosphorylation and opening of CFTR anion channels; host or cells: human colonic T84 cells
T1 sequence (P13569 whole entry): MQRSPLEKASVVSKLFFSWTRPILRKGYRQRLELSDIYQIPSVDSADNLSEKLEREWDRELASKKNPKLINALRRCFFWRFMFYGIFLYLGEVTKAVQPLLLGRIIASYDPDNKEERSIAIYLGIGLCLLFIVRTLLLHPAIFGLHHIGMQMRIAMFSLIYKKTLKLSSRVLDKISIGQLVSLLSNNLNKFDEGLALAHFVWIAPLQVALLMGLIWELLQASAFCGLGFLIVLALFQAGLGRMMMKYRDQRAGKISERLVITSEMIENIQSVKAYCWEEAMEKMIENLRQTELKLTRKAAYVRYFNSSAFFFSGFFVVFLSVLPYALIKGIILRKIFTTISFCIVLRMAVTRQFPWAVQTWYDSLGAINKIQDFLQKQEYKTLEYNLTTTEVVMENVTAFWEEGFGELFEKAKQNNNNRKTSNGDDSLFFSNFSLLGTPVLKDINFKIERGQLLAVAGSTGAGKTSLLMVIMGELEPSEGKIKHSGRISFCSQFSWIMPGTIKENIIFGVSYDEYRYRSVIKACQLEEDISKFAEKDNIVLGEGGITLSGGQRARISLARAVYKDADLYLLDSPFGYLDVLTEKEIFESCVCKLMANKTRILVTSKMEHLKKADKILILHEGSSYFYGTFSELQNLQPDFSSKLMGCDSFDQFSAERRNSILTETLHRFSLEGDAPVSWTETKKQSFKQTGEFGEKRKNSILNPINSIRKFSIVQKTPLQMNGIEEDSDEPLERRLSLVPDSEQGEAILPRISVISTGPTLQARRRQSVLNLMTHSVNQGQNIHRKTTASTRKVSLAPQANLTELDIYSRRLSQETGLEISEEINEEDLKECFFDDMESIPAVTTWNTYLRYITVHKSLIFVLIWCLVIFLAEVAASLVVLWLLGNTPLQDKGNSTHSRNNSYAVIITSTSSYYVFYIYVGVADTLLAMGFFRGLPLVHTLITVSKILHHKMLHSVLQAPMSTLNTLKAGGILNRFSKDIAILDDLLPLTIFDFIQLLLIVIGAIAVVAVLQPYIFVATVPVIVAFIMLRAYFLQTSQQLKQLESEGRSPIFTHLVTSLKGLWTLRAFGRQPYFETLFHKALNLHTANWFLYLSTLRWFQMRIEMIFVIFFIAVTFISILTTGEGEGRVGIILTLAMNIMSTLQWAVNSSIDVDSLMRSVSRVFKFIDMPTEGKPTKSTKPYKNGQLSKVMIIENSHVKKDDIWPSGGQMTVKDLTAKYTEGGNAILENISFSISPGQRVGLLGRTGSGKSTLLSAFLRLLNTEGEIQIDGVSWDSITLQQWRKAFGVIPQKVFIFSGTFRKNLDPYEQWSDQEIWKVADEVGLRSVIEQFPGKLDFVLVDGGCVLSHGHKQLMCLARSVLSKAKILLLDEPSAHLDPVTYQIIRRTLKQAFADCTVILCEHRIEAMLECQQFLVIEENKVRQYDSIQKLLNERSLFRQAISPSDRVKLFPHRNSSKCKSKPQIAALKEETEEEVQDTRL
Format: cell-based
Description: (§1) For example, Human colonic T84 cells can be acquired from the European Collection of Cell Cultures (ECACC) and grown in standard culture conditions as described by the supplier. On the day before assay 25,000 T84 cells per well are plated into standard black walled, clear bottom 384-well assay plates in standard growth medium consisting of DMEM:F12 with 10% FBS and incubated overnight. On the day of the assay the plates are washed using a standard assay buffer (HBSS with 10 mM Hepes) and incubated for 15 minutes in serum free cell culture medium before the addition of a commercially available membrane potential sensitive fluorescent dye (FLIPR Red membrane potential dye, Molecular Devices Corporation). T84 cells are incubated with the FLIPR Red membrane potential dye for 45 minutes in the presence and absence of test compound before being transferred to a commercially available fluorescence imaging plate reader (FLIPR384, Molecular Devices Corporation). Fluorescence levels are monitored continuously every second for 150 seconds; after an initial 10 second baseline, CFTR channel activity is stimulated through the addition of 10 μM forskolin in the presence of 100 μM of the phosphodiesterase inhibitor iso-butyl-methylxanthine (IBMX). Addition of the forskolin leads to the activation of intracellular adenylyl cylase 1, elevating cAMP levels and results in the phosphorylation and opening of CFTR anion channels. CFTR channel opening causes chloride ion efflux and subsequent depolarization of the cells, which is measured by an increase in fluorescence. CFTR inhibitor compounds prevent cell depolarization and the associated increase in fluorescence.
as §1, with “Human colonic” for “For example, Human colonic”, “T84 cells are acquired from” for “T84 cells can be acquired from”, “(ECACC) and are grown in” for “(ECACC) and grown in”

| IC50 [µM] | Structure (SMILES) |
| --- | --- |
| 28.6 | O=C(O)c1ccccc1N1CCN(Cc2ccc(COc3ncc(-c4cc(Cl)c(O)c(Cl)c4)nn3)cc2)CC1 [Compound 144, 2-(4-(4-((6-(3,5-dichloro-4-hydroxyphenyl)-1,2,4-triazin-3-yloxy)methyl)benzyl)piperazin-1-yl)benzic acid] |
| 28.8 | CC1(C)Cc2cccc(OCc3ncc(-c4cc(Br)c(O)c(Br)c4)nn3)c2O1 [Compound 128, 2,6-dibromo-4-(3-((2,2-dimethyl-2,3-dihydrobenzofuran-7-yloxy)methyl)-1,2,4-triazin-6-yl)phenol] |
| 3.97 | Oc1c(Cl)cc(-c2cnc(OCc3ccc(F)cc3F)nn2)cc1Cl [Compound 148, 2,6-dichloro-4-(3-(2,4-difluorobenzyloxy)-1,2,4-triazin-6-yl)phenol] |
| 25.8 | Oc1c(Cl)cc(-c2cnc(OCCNc3ccccc3)nn2)cc1Cl [Compound 125, 2,6-dichloro-4-(3-(2-(phenylamino)ethoxy)-1,2,4-triazin-6-yl)phenol] |
| 2.43 | CN(C)CCCOc1cccc(CN(C)Cc2ccc(COc3ncc(-c4cc(Cl)c(O)c(Cl)c4)nn3)cc2)c1 [Compound 204, 2,6-dichloro-4-(3-(4-(((3-(3-(dimethylamino)propoxy)benzyl)(methyl)amino)methyl)benzyl-oxy)-1,2,4-triazin-6-yl)phenol] |
| 3.04 | CC(C)(C)OC(=O)N1CCC(COc2ncc(-c3cc(Cl)c(O)c(Cl)c3)nn2)(c2ccccc2)CC1 [Compound 139, tert-butyl 4-((6-(3,5-dichloro-4-hydroxyphenyl)-1,2,4-triazin-3-yloxy)methyl)-4-phenylpiperidine-1-carboxylate] |
| 1.89 | Oc1c(Cl)cc(-c2cnc(OC(Cc3ccccc3)c3ccccc3)nn2)cc1Cl (stereo not shown) [Compound 111, 2,6-dichloro-4-(3-(1,2-diphenylethoxy)-1,2,4-triazin-6-yl)phenol] |
| 4.47 | O=C(c1ccco1)N1CCN(Cc2ccc(COc3ncc(-c4cc(Cl)c(O)c(Cl)c4)nn3)cc2)CC1 [Compound 217, (4-(4-((6-(3,5-dichloro-4-hydroxyphenyl)-1,2,4-triazin-3-yloxy)methyl)benzyl)piperazin-1-yl)(furan-2-yl)methanone] |
| 11.1 | Oc1c(Br)cc(-c2cnc(COc3cc(Cl)ccc3Cl)nn2)cc1Br [Compound 43, 2,6-dibromo-4-(3-((2,5-dichlorophenoxy)methyl)-1,2,4-triazin-6-yl)phenol] |
| 0.3 | Cc1ccc(CCOc2ncc(-c3cc(Br)c(O)c(Br)c3)nn2)cc1 [Compound 98, 2,6-dibromo-4-(3-(4-methylphenethoxy)-1,2,4-triazin-6-yl)phenol] |
| 2.27 | Oc1c(Cl)cc(-c2cnc(OCc3ccc(CNC(CN4CCOCC4)c4ccccc4)cc3)nn2)cc1Cl (stereo not shown) [Compound 157, 2,6-dichloro-4-(3-(4-((2-morpholino-1-phenylethylamino)methyl)benzyloxy)-1,2,4-triazin-6-yl)phenol] |
| 25.3 | Oc1c(Br)cc(-c2cnc(COc3ccc(F)cc3F)nn2)cc1Br [Compound 56, 2,6-dibromo-4-(3-((2,4-difluorophenoxy)methyl)-1,2,4-triazin-6-yl)phenol] |
| 4.09 | Oc1c(Br)cc(-c2cnc(OC3c4ccccc4Oc4ccccc43)nn2)cc1Br [Compound 91, 4-(3-(9H-xanthen-9-yloxy)-1,2,4-triazin-6-yl)-2,6-dibromophenol] |
| 20.1 | Cc1ccc(C(C)C)cc1OCc1ncc(-c2cc(Br)c(O)c(Br)c2)nn1 [Compound 53, 2,6-dibromo-4-(3-((5-isopropyl-2-methylphenoxy)methyl)-1,2,4-triazin-6-yl)phenol] |
| 1.56 | Oc1c(Cl)cc(-c2cnc(OCc3ccc(OC(F)(F)F)cc3)nn2)cc1Cl [Compound 154, 2,6-dichloro-4-(3-(4-(trifluoromethoxy)benzyloxy)-1,2,4-triazin-6-yl)phenol] |
| 0.32 | Oc1c(Br)cc(-c2cnc(OCCc3ccc(Br)cc3)nn2)cc1Br [Compound 2, 2,6-dibromo-4-(3-(4-bromophenethoxy)-1,2,4-triazin-6-yl)phenol] |
| 8.24 | CN(Cc1ccc(COc2ncc(-c3cc(Cl)c(O)c(Cl)c3)nn2)cc1)Cc1ccc(CN2CCCCC2)cc1 [Compound 208, 2,6-dichloro-4-(3-(4-((methyl(4-(piperidin-1-ylmethyl)benzyl)amino)methyl)benzyloxy)-1,2,4-triazin-6-yl)phenol, formate salt] |
| 1.18 | Oc1c(Br)cc(-c2cnc(OC3CCc4ccccc4C3)nn2)cc1Br (stereo not shown) [Compound 108, 2,6-dibromo-4-(3-(1,2,3,4-tetrahydronaphthalen-2-yloxy)-1,2,4-triazin-6-yl)phenol] |
| 11.6 | Cc1ccc(Cl)c(OCc2ncc(-c3cc(Br)c(O)c(Br)c3)nn2)c1 [Compound 34, 2,6-dibromo-4-(3-((2-chloro-5-methylphenoxy)methyl)-1,2,4-triazin-6-yl)phenol] |
| 1.55 | CC(C)(C)OC(=O)N1CCN(Cc2ccc(COc3ncc(-c4cc(Cl)c(O)c(Cl)c4)nn3)cc2)CC1 [Compound 145, tert-butyl 4-(4-((6-(3,5-dichloro-4-hydroxyphenyl)-1,2,4-triazin-3-yloxy)methyl)benzyl)piperazine1-carboxylate, ammonium salt] |
| 6.42 | CN(Cc1ccc(COc2ncc(-c3cc(Cl)c(O)c(Cl)c3)nn2)cc1)Cc1ccc(-c2ccc(C(F)(F)F)cn2)cc1 [Compound 210, 2,6-dichloro-4-(3-(4-((methyl(4-(5-(trifluoromethyl)pyridin-2-yl)benzyl)amino)methyl)benzyloxy)-1,2,4-triazin-6-yl)phenol] |
| 10.5 | Cc1cc(Cl)ccc1OCc1ncc(-c2cc(Cl)c(O)c(Cl)c2)nn1 [Compound 40, 2,6-dichloro-4-(3-((4-chloro-2-methylphenoxy)methyl)-1,2,4-triazin-6-yl)phenol] |
| 6.61 | Oc1c(Cl)cc(-c2cnc(OCc3ccc(CN(Cc4ccccc4)Cc4ccccc4)cc3)nn2)cc1Cl [Compound 167, 2,6-dichloro-4-(3-(4-((dibenzylamino)methyl)benzyl-oxy)-1,2,4-triazin-6-yl)phenol] |
| 3.79 | CN(Cc1ccc(COc2ncc(-c3cc(Cl)c(O)c(Cl)c3)nn2)cc1)Cc1ccc(-c2ccncc2)cc1 [Compound 187, 2,6-dichloro-4-(3-(4-((methyl(4-(pyridin-4-yl)benzyl)amino)methyl)benzyl-oxy)-1,2,4-triazin-6-yl)phenol] |
| 14.7 | Cc1cc(OCc2ncc(-c3cc(Br)c(O)c(Br)c3)nn2)cc(C)c1Cl [Compound 47, 2,6-dibromo-4-(3-((4-chloro-3,5-dimethylphenoxy)methyl)-1,2,4-triazin-6-yl)phenol] |
| 0.7 | Oc1c(Br)cc(-c2cnc(OCc3ccccc3Br)nn2)cc1Br [Compound 6, 2,6-dibromo-4-(3-(2-bromobenzyloxy)-1,2,4-triazin-6-yl)phenol] |
| 4.8 | Cc1cncc(Oc2ccc(CN(C)Cc3ccc(COc4ncc(-c5cc(Cl)c(O)c(Cl)c5)nn4)cc3)cc2)n1 [Compound 209, 2,6-dichloro-4-(3-(4-((methyl(4-(6-methylpyrazin-2-yloxy)benzyl)amino)methyl)benzyloxy)-1,2,4-triazin-6-yl)phenol] |
| 14.8 | O=[N+]([O-])c1ccccc1SCc1ncc(-c2cc(Br)c(O)c(Br)c2)nn1 [Compound 131, 2,6-dibromo-4-(3-((2-nitrophenylthio)methyl)-1,2,4-triazin-6-yl)phenol] |
| 3.36 | OCCN(Cc1ccc(COc2ncc(-c3cc(Cl)c(O)c(Cl)c3)nn2)cc1)Cc1ccccc1Cl [Compound 172, 2,6-dichloro-4-(3-(4-(((2-chlorobenzyl)(2-hydroxyethyl)amino)methyl)benzyl-ozyloxy)-1,2,4-triazin-6-yl)phenol] |
| 14.6 | CN(Cc1ccc(COc2ncc(-c3cc(Cl)c(O)c(Cl)c3)nn2)cc1)Cc1cccc(Cl)c1Cl [Compound 183, 2,6-dichloro-4-(3-(4-(((2,3-dichlorobenzyl)(methyl)amino)methyl)benzyloxy)-1,2,4-triazin-6-yl)phenol] |

| Structure (SMILES) | IC50 [µM] |
| --- | --- |
| Oc1c(Cl)cc(-c2cnc(C(O)(c3ccccc3)c3ccccc3)nn2)cc1Cl [Compound 36, 2,6-dichloro-4-(3-(hydroxydiphenylmethyl)-1,2,4-triazin-6-yl)phenol] | 7.67 |
